Assay [1] deals with T1, CRTH2 (Homo sapiens, UniProt Q9Y5Y4).
T1 sequence (Q9Y5Y4 1-395): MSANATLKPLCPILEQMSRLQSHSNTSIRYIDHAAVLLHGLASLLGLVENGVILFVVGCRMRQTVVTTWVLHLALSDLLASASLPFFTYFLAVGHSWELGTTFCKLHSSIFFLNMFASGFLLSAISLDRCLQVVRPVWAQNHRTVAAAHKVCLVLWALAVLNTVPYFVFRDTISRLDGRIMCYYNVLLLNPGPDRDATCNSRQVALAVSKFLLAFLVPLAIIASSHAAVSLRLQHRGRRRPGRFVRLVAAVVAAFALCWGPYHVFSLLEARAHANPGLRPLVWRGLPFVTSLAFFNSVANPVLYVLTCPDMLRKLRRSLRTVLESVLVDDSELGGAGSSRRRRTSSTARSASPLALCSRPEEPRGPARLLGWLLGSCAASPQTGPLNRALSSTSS
As to the kind of experiment: Radioligand binding Scintillation Proximity Assay ([3H]PGD2, hCRTH2-CHO cell membranes). Also noted: host or cells: CHO cells. The note with it: 1.5 nM [3H]PGD2, hCRTH2-CHO cell membranes, SPA. The method in brief: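 SPA competition binding at room temperature, 90 min with agitation: 1.5 nM [3H]PGD2, 10-50 μg/ml hCRTH2-CHO membrane protein, WGA SPA beads, HEPES pH 7.4 with 10 mM MnCl2, 1% DMSO. Non-specific binding defined with 10 μM PGD2; scintillation counting.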
(In general: Scintillation proximity formats need no separation of bound from free tracer.)

For assay [2], the system named is eosinophils in human whole blood. As to the kind of experiment: PGD2-induced eosinophil cell shape assay in human whole blood. The class given is cell-based. The note with it: 10 nM PGD2 final, flow cytometry. As to the method:
The Compounds of Formula (I) were diluted in dimethylsulphoxide so that the total volume of dimethylsulfoxide was kept constant at 2% dimethylsulphoxide (Me2SO). Serial dilutions of 200 μM to 0.09 μM were prepared. Samples of 90 μl of human blood from healthy volunteers (Centre de Transfusion Sanguine de Genève) were pre-incubated in polypropylene Falcon tubes (BD 352063) for 20 minutes in a water bath at 37° C. with 10 μl of diluted compounds. For CRTH2 activation, 100 μl PGD2 (Cayman 12010) at 20 nM was added (10 nM final) to each tube and cells were maintained at 37° C. For negative control cells were treated with PBS. After 10 minutes, cell activation was stopped with 120 μl Formaldehyde 10% (4% final, Fluka 41650) and cells were rested for 10 minutes at room temperature. Fixed cells were transferred into polypropylene tubes and then treated for 1 hour in a water bath at 37° C. with 2 ml of Triton-Surfact-Amps X-100 (Pierce 28314) at 0.166% (0.13% Triton final). After several washes with PBS (red cells lysed progressively during washes, two washes are necessary), cells were analyzed by flow cytometry on a FACSCalibur. In one embodiment, the compounds of Formula (I) of the present invention are capable of blocking the cell shape change of eosinophils induced by PGD2 in Whole Blood.
(In flow cytometry, cells or beads pass a laser one at a time.)

Assay [3] relates to FITC induced contact hypersensitivity in mice. As to the kind of experiment: FITC 1 week model (FITC induced contact hypersensitivity, ear swelling). The class given is in vivo, Balb/C mice. The note with it: oral gavage, 24 h after challenge. The source says:
Fluorescein isothiocyanate (FITC) induced contact hypersensitivity (CHS) is a commonly used model for atopic dermatitis (AD). The hapten FITC is a small molecule that is able to elicit an immune response only when attached to a larger carrier such as a protein. It is reactive towards e-amino groups (lysine). The immune response to FITC sensitization and challenge is Th2 cytokine driven (IL-4, IL-5, IL-6, IL-10 and IL-13) and associated with elevated serum IgE levels. The skin inflammation at the site of the challenge is characterized by edema and eosinophil infiltrations.
Female 9 week old Balb/C mice were sensitized on days 0 and 1 with 0.5% FITC in acetone/dibuthylphtalate (A/DBP). One group (sham) was sensitized with A/DBP alone. On day 6 all the mice including the sham group were challenged on the right ear (inner and outer surface) with 0.5% FITC in A/DBP. The mice were treated with the compounds via oral gavage 1 h before and 7 h after the challenge. The baseline ear thickness was measured before the challenge and 24 h after the challenge. At the end of the experiment (24 h after the challenge) the mice were sacrificed. Serum and plasma samples were taken. The challenged ear was excised and stored at −80° C. Compounds of Formula (I) of the present invention were tested at 3, 10 and 30 mg/Kg.

Molecules are shown by their SMILES.

The text below walks through data of US8273769B2, “Phenoxy acetic acid derivatives” (Merck Serono SA, priority 2009, dated 2012).

What is called IC50 is the concentration that gives 50% inhibition. Low readings indicate higher potency, high ones lower potency. Regarding `CCCS(=O)(=O)c1cccc(C#Cc2cc(Cl)ccc2OCC(=O)O)c1` [Example 17, (4-chloro-2-{[3-(propylsulfonyl)phenyl]ethynyl}phenoxy)acetic acid], the half-maximal inhibitory concentration (IC50) in assay [1] worked out at 10 nM; in assay [2], 150 nM.

For the compound `CN(C)S(=O)(=O)c1cncc(C#Cc2cc(Cl)ccc2OCC(=O)O)c1` [Example 35, [4-chloro-2-({5-[(dimethylamino)sulfonyl]pyridin-3-yl}ethynyl)phenoxy]acetic acid], the IC50 worked out at 55 nM in assay [1] and 289 nM in assay [2].

Consider `CCCS(=O)(=O)c1ccc(C)c(C#Cc2cc(Cl)ccc2OCC(=O)O)c1` [Example 38, (4-chloro-2-{[2-methyl-5-(propylsulfonyl)phenyl]ethynyl}phenoxy)acetic acid], for which the IC50 in assay [1] is 5 nM; in assay [2] it was 81 nM. Besides, the “% inhibition of ear swelling (mean ± s.e.m.)” value (from here on “% inhibition of ear swelling”) in assay [3] (dose 3 mg/kg) is reported as 23 ± 16%; in assay [3] (dose 10 mg/kg) it was 56 ± 12%; in assay [3] (dose 30 mg/kg) it was 52 ± 12%.

As to `CCCS(=O)(=O)c1ccc(F)c(C#Cc2cc(Cl)ccc2OCC(=O)O)c1` [Example 89, (4-chloro-2-{[2-fluoro-5-(propylsulfonyl)phenyl]ethynyl}phenoxy)acetic acid], the half-inhibitory concentration (IC50) in assay [1] turned out to be 6 nM; in assay [2], 23 nM. Moreover, the “% inhibition of ear swelling” value in assay [3] (dose 3 mg/kg) worked out at 36 ± 19%; in assay [3] (dose 10 mg/kg), 54 ± 16%; in assay [3] (dose 30 mg/kg), 48 ± 11%.

`CCCS(=O)(=O)c1ccc(Cl)c(C#Cc2cc(Cl)ccc2OCC(=O)O)c1` [Example 101, (4-chloro-2-{[2-chloro-5-(propylsulfonyl)phenyl]ethynyl}phenoxy)acetic acid]: the values for the IC50 in assay [1] and in assay [2] were 3 nM and 23 nM, respectively.

On to `CC(C)S(=O)(=O)c1ccc(F)c(C#Cc2cc(Cl)ccc2OCC(=O)O)c1` [Example 102, (4-chloro-2-{[2-fluoro-5-(isopropylsulfonyl)phenyl]ethynyl}phenoxy)acetic acid], for which the results for the IC50 in assay [1] and in assay [2] were 5 nM and 91 nM, respectively.

Regarding `CC(C)S(=O)(=O)c1ccc(Cl)c(C#Cc2cc(Cl)ccc2OCC(=O)O)c1` [Example 103, (4-chloro-2-{[2-chloro-5-(isopropylsulfonyl)phenyl]ethynyl}phenoxy)acetic acid], the figures for the IC50 in assay [1] and in assay [2] were 4 nM and 67 nM, respectively.

With `CN(C)S(=O)(=O)c1ccc(F)c(C#Cc2cc(Cl)ccc2OCC(=O)O)c1` [Example 107, [4-chloro-2-({5-[(dimethylamino)sulfonyl]-2-fluorophenyl}ethynyl)phenoxy]acetic acid], the IC50 in assay [1] is 4 nM; in assay [2], 23 nM.

In assay [1], `O=C(O)COc1ccc(Cl)cc1C#Cc1ccc2c(c1)S(=O)(=O)c1ccccc1-2` [Example 154, {4-chloro-2-[(5,5-dioxidodibenzo[b,d]thien-3-yl)ethynyl]phenoxy}acetic acid] had an IC50 of 14 nM. The “% inhibition of ear swelling” value in assay [3] (dose 3 mg/kg) is 41 ± 9%; in assay [3] (dose 10 mg/kg), 49 ± 9%; in assay [3] (dose 30 mg/kg) it was 54 ± 17%.
